Reference: US5688913A, “CS-1 peptidomimetics, compositions and methods of using the same” (Cytel Corporation, priority 1995, dated 1997)
Read-outs that look alike come from different tables or passages of the source. Square brackets hold non-standard residues; d marks the D form. Peptide text beside a SMILES is read from it. * marks the point of attachment. Phe(4-NO2) = N[C@@H](Cc1ccc([N+](=O)[O-])cc1)C(=O)O; NHOctadecyl = CCCCCCCCCCCCCCCCCCN*; hPhe = N[C@@H](CCc1ccccc1)C(=O)O; Cha = N[C@@H](CC1CCCCC1)C(=O)O; Morpholide = C1CN(*)CCO1; PhAc = O=C(Cc1ccccc1)*; Ahx = NCCCCCC(=O)O

What was measured:
[1] = system: murine contact hypersensitivity; conditions: cited from earlier work
[2] = Elices et al. 1993; by proteolytic degradation; cited from earlier work
VLA-4 [3] = target: T1, VLA-4 (Homo sapiens, UniProt P05556+P13612); test: cell-based; assay type: cell-based; design: host or cells: Jurkat (human T lymphoblastic line)
How it was run: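 51Cr-labelled Jurkat cells (human T lymphoblastic) were preincubated 30 min at about 22 °C with peptide, then allowed to bind 30 min at 37 °C to wells coated with CS-1 peptide or CS-1-OVA. After washing, bound cells were lysed with SDS and counted. IC50 is the peptide concentration halving binding, normalized to plate controls.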

Water solubility = assay type: physicochemical
[4] = Retention of potency in PBS containing 10 percent serum; conditions: PBS at 7.2-7.4 containing 10 percent mouse or human serum
[5] = system: New Zealand white rabbits; test: Treatment of asthmatic rabbits (house dust mite antigen challenge, crossover); assay type: in vivo, rabbit
Description: Six New Zealand white rabbits were immunized with house dust mite antigen from birth through four months of age. Upon immunization, three rabbits received a single nebulizer administration of the inhibitor peptide N-phenylacetyl-Leu-Asp-Phe-morpholinamide in aqueous 50 percent ethanol as diluent in an amount of 100 mg/kg, and the other three received diluent alone. All of the rabbits were challenged with house dust mite antigen about 15-30 minutes after administration of the peptide, with those animals not receiving peptide serving as controls.
Once immunized and challenged, the inflammatory state subsides to a basal level within about three weeks. The three animals used as controls were thereafter used as subjects for receipt of an inhibitor peptide, and the three rabbits that initially received the peptide can serve as controls.
Such a crossover study was done here. Thus, the three initial control rabbits were treated with the above inhibitor peptide in the above diluent at a time more than three weeks after the above study, and the three previous recipients of the peptide were administered the diluent alone. All six were than challenged again.
Initial pulmonary function, measured by dynamic compliance (Cdyn) and lung resistance (RL), and bronchoalveolar lavage (BAL) to obtain an effector cell count, here eosinophils, were conducted prior to administration of the peptide or diluent for both portions of this crossover study. Similar assays were then taken one-half hourly after challenge for six hours (early phase allergic reaction) and at 24 hours after challenge (late stage allergic reaction) for both portions of this study.
These studies were conducted by Dr. W. J. Metzger of East Carolina University, Greenville, N.C. as described by W. J. Metzger in CRC Handbook of Late Phase Reactions, W. Dorsch, ed., Chapter 35, CRC Press, Boca Raton, Fla. (1990) pages 347-362.
The results of this study for the pulmonary function parameters are shown in FIG. 4A and FIG. 4B, in which data for the challenged, inhibitor peptide-treated animals are shown as open circles and data for the challenged, untreated, control animals are shown in blackened circles.

VLA-4 [6] = target: T1, VLA-4; conditions: cited from earlier work
[7] = normalized IC50 relative to standard peptide of SEQ ID NO:3 (=1), about one-tenth or less of the standard is assigned zero
[8] = 100 mg/kg single nebulizer administration, early phase 2-4 hours, versus challenged controls
[9] = 100 mg/kg single nebulizer administration, late phase 24 hours, versus challenged controls

T1 sequence (P13612 34-1032): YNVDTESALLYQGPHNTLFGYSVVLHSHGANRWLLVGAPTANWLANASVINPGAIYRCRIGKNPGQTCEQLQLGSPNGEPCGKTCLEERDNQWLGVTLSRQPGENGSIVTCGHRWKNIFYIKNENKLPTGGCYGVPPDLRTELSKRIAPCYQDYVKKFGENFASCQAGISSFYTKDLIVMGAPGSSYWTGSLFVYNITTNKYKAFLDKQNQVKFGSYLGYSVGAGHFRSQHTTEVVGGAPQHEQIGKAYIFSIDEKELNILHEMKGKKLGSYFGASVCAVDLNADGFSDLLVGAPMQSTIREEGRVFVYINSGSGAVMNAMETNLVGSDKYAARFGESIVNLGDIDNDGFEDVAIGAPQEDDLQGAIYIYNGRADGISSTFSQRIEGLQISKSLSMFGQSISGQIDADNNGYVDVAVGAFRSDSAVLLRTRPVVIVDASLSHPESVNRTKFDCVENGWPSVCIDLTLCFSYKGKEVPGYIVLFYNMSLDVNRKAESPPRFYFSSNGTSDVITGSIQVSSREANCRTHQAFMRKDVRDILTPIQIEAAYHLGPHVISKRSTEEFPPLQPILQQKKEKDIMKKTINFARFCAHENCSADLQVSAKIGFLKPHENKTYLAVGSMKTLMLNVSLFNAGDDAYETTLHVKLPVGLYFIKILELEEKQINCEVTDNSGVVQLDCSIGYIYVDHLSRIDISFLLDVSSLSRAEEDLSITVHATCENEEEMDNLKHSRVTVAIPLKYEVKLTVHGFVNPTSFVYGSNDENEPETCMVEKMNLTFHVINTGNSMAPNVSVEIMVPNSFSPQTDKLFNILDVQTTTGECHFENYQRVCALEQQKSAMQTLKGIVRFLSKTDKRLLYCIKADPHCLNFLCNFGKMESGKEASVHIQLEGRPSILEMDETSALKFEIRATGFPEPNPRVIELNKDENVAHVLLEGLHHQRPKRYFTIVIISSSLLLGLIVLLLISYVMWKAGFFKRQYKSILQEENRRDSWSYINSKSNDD
T1 sequence (P05556 21-798): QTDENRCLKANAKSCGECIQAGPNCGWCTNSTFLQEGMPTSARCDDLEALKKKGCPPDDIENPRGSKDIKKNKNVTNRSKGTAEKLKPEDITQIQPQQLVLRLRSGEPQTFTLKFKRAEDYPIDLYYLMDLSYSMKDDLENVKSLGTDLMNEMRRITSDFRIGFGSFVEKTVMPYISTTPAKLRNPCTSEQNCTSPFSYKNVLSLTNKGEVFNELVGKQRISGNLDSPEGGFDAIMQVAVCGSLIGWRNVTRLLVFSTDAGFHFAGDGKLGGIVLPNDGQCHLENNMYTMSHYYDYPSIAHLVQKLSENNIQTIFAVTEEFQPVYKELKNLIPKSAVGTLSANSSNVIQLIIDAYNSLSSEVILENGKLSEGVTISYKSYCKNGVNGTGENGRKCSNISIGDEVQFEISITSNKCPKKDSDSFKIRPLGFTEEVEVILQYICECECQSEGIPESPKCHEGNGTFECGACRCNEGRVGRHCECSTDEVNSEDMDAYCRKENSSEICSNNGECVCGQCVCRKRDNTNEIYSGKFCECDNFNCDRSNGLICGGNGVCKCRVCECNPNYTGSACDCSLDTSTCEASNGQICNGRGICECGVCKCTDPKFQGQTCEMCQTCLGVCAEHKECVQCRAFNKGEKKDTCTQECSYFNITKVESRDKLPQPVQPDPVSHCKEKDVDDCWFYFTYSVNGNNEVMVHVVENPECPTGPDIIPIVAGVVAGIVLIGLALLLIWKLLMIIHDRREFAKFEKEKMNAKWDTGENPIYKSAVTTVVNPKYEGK

In the case of `CC[C@H](C)[C@H](NC(=O)[C@H](CCC(=O)O)NC(=O)[C@@H]1CCCN1C(=O)CNC(=O)[C@H](Cc1c[nH]cn1)NC(=O)[C@H](CC(C)C)NC(=O)[C@H](CC(N)=O)NC(=O)[C@@H]1CCCN1C(=O)[C@H](Cc1c[nH]cn1)NC(=O)[C@@H]1CCCN1C(=O)[C@H](CC(C)C)NC(=O)[C@@H](NC(=O)[C@@H](NC(=O)[C@H](CC(C)C)NC(=O)[C@H](CCC(N)=O)NC(=O)[C@@H]1CCCN1C(=O)[C@H](CC(C)C)NC(=O)[C@H](CCC(=O)O)NC(=O)[C@@H](N)CC(=O)O)C(C)C)[C@@H](C)O)C(=O)N[C@@H](CC(C)C)C(=O)N[C@@H](CC(=O)O)C(=O)N[C@H](C(=O)N1CCC[C@H]1C(=O)N[C@@H](CO)C(=O)N[C@H](C(=O)O)[C@@H](C)O)C(C)C` [CS-1 peptide] (H-DELPQLVTLPHPNLHGPEILDVPST-OH), the “inhibition of contact hypersensitivity” value ([1]; Elices et al. 1993) is given as “unable to reproduce inhibition”, the “inhibition of recruitment of T lymphocytes to skin inflammatory sites” value ([1]; Ferguson et al. 1991) is given as “partially inhibited” and the “clearance from blood circulation” value [2] is given as “rapidly cleared”.

With `CCCCCCCCCCCCCCCCCCNC(=O)CCCCCNC(=O)[C@@H]1CCCN1C(=O)[C@H](Cc1ccccc1)NC(=O)[C@H](CC(=O)O)NC(=O)[C@H](CC(C)C)NC(=O)Cc1ccccc1` [phenylacetyl-Leu-Asp-Phe-Pro-NH(CH2)5 C(O)NHC18 H37] (PhAc-LDFP[Ahx]-NHOctadecyl) the “RELATIVE POTENCY (relative peptide inhibition of VLA-4 binding CS-1)” value (VLA-4 [3]; [7]) was 1 and the water solubility (Water solubility) was “not water-soluble”.

In the case of `CC(C)C[C@H](NC(=O)Cc1ccccc1)C(=O)N[C@@H](CC(=O)O)C(=O)N[C@@H](Cc1ccccc1)C(=O)N1CCOCC1` [X L D F Z phenylacetyl morpholinamide, N-phenylacetyl-Leu-Asp-Phe-morpholinamide] (PhAc-Leu-Asp-Phe-Morpholide), the IC50 (VLA-4 [3]; Jurkat cells / solid phase-bound CS-1, read-out: absolute IC50 value) is reported as 180 to 300 nM, the “RELATIVE POTENCY (relative peptide inhibition of VLA-4 binding CS-1)” value (VLA-4 [3]; [7]) is reported as 844 and the “loss of potency after 24 hours” value [4] is reported as “no loss of potency”. The “Cdyn, % Reduction, Early phase” value [5, 8] was 94.4%, the “RL, % Reduction, Early phase” value [5, 8] was 80.1% and the “Cdyn, % Reduction, Late phase” value [5, 9] was 86.6%. For the same compound, the “RL, % Reduction, Late phase” value [5, 9] was 82.6%, the “Cdyn value over six hours after challenge” value ([5]; FIG. 4A, 100 mg/kg nebulized) was “stayed at about the initial value” and the “RL values over six hours after challenge” value ([5]; FIG. 4B, 100 mg/kg nebulized) was ≤ 200% of initial value.

For Leu-Asp-Val [LDV], the “affinity of VLA-4 lower than for the native CS-1 25-mer” value (VLA-4 [6]) is given as “at least two”.

In the case of `CC(C)C[C@H](NC(=O)Cc1ccccc1)C(=O)N[C@@H](CC(=O)O)C(=O)N[C@@H](Cc1ccc([N+](=O)[O-])cc1)C(=O)N1CCC[C@@H]1C(N)=O` (PhAc-LD[Phe(4-NO2)][dP]-NH2), the “RELATIVE POTENCY (relative peptide inhibition of VLA-4 binding CS-1)” value (VLA-4 [3]; [7]) is reported as 40.

For `CC(C)C[C@H](NC(=O)Cc1ccccc1)C(=O)N[C@@H](CC(=O)O)C(=O)NC(Cc1ccccc1)Cc1ccccc1`, the “RELATIVE POTENCY (relative peptide inhibition of VLA-4 binding CS-1)” value (VLA-4 [3]; [7]) was 0.

For `CC(C)CC(C(=O)NCc1ccccc1)C(=O)N[C@@H](CC(=O)O)C(=O)N[C@@H](Cc1ccccc1)C(=O)N1CCC[C@@H]1C(N)=O` (stereo partly drawn), the “RELATIVE POTENCY (relative peptide inhibition of VLA-4 binding CS-1)” value (VLA-4 [3]) was 2.

With `CC(C)C[C@H](NC(=O)c1ccccn1)C(=O)N[C@@H](CC(=O)O)C(=O)N[C@H](C(=O)N1CCC[C@@H]1C(N)=O)C(C)C` [X L D V p pyridine-2-carbonyl amide] the “RELATIVE POTENCY (relative peptide inhibition of VLA-4 binding CS-1)” value (VLA-4 [3]) was 8.

For `CC(C)C[C@H](NC(=O)Cc1ccccc1)C(=O)N[C@@H](CC(=O)O)C(=O)N[C@@H](Cc1ccccc1)C(=O)N1CCC(O)CC1`, the “RELATIVE POTENCY (relative peptide inhibition of VLA-4 binding CS-1)” value (VLA-4 [3]; [7]) was 603.

In the case of `CC(C)C[C@H](NC(=O)Cc1ccccc1)C(=O)N[C@@H](CC(=O)O)C(=O)NC1Cc2ccccc2NC1=O` (stereo partly drawn), the “RELATIVE POTENCY (relative peptide inhibition of VLA-4 binding CS-1)” value (VLA-4 [3]; [7]) is reported as 31.

In the case of `CC(C)C[C@H](NC(=O)Cc1ccccc1)C(=O)N[C@@H](CC(=O)O)C(=O)N[C@@H](CCc1ccccc1)C(=O)N1CCC[C@@H]1C(N)=O` (PhAc-LD[hPhe][dP]-NH2), the “RELATIVE POTENCY (relative peptide inhibition of VLA-4 binding CS-1)” value (VLA-4 [3]; [7]) is reported as 94.

With `CC(C)C[C@H](NC(=O)Cc1ccccc1)C(=O)N[C@@H](CC(=O)O)C(=O)NN(Cc1ccccc1)Cc1ccccc1` the “RELATIVE POTENCY (relative peptide inhibition of VLA-4 binding CS-1)” value (VLA-4 [3]; [7]) was 0.

With `NC(=O)[C@H]1CCCN1C(=O)[C@H](Cc1ccccc1)NC(=O)[C@H](CC(=O)O)NC(=O)[C@H](CC1CCCCC1)NC(=O)[C@@H](N)Cc1ccccc1` (H-F[Cha]DF[dP]-NH2) the “RELATIVE POTENCY (relative peptide inhibition of VLA-4 binding CS-1)” value (VLA-4 [3]) was 1.
